This note sets out measurements from ChEMBL document CHEMBL4483862, “Open-source discovery of chemical leads for next-generation chemoprotective antimalarials” (2018).

The term IC50 denotes the concentration at which inhibition is half-maximal. What is called IC90 is the concentration needed for an effect of 90%.

This assay has as its system Plasmodium berghei. Nature of the assay: Luciferase/luciferin-expressing antifolate-resistant parasites were used to infect a culture of HepG2 cells that were pre-incubated with compounds. Infected hepatocytes emit light due to the luciferase reaction. Assay results are presented as the percent inhibition of light emission compared to control. […]. It counts as functional. The note with it: sporozoite; for IC90: read-out: LUCIFERASE INFECTION ASSAY - IC90.

The mark [1] stands for this setting: read-out: LUCIFERASE INFECTION ASSAY - IC50.

Where only a bound is given, the exact number is not on record here.

With `COc1cncc(-c2cnc3sc(NCC4CCOCC4)nn23)c1`, the IC90 stood at 1.51 µM. For the setting “HEPG2TOX_HILL_SLOPE 1.52, HEPG2TOX_R_SQUARED 0.935, PBLUC_HILL_SLOPE 11.6, PBLUC_R_SQUARED 0.526, read-out: LUCIFERASE INFECTION ASSAY - IC50”, the IC50 was found to be 1.25 µM.

On to `c1ccc(-c2csc3nc(-c4ccccn4)nc(NC4CC4)c23)cc1`, for which the IC90 stood at 4.93 µM. Moreover, the IC50 under setting [1] amounted to 2.32 µM.

With `CC(C)(C)c1cc2nc(C(F)(F)F)cc(N/N=C/c3ccccc3)n2n1`, the 90% effect concentration (IC90) is over 9.13 µM. The half-inhibitory concentration (IC50) (PBLUC_HILL_SLOPE 15.2, PBLUC_R_SQUARED 0.244, read-out: LUCIFERASE INFECTION ASSAY - IC50) amounted to 8.24 µM.

Take `COc1ccc(-c2nc(C(=O)N3CCc4ccccc43)cs2)cc1OC`: the IC90 turned out to be 2.46 µM. For the same compound, the IC50 (HEPG2TOX_HILL_SLOPE 2.84, HEPG2TOX_R_SQUARED 0.79, PBLUC_HILL_SLOPE 2.13, PBLUC_R_SQUARED 0.686, read-out: LUCIFERASE INFECTION ASSAY - IC50) is 0.875 µM.

`CN(C)CCNS(=O)(=O)c1ccc(Cl)c([N+](=O)[O-])c1`: the 90% effect concentration (IC90) is over 10 µM. Further, the IC50 under setting [1] was over 10 µM.

Turning to `CC(C)(C)c1ccc(C(=O)Nc2ccc(Oc3cccnc3)nc2)cc1`, the 90% effect concentration (IC90) is over 9.5 µM. Besides, under “HEPG2TOX_HILL_SLOPE 1.03, HEPG2TOX_R_SQUARED 0.91, PBLUC_HILL_SLOPE 1.13, PBLUC_R_SQUARED 0.427, read-out: LUCIFERASE INFECTION ASSAY - IC50”, the IC50 turned out to be 3.06 µM.

With `CC(C)(C)c1cc(-c2nccs2)ccc1/C=N/O`, the concentration for an effect of 90% (IC90) was over 12.7 µM. In addition, the IC50 under setting [1] is over 12.7 µM.

Regarding `Cc1cc(C2=NNC(=NC3CC3)SC2)c(C)n1-c1ccccn1`, the concentration for an effect of 90% (IC90) was 1.61 µM. The IC50 (FFLUC_HILL_SLOPE 1.22, FFLUC_R_SQUARED 0.875, PBLUC_HILL_SLOPE 1.09, PBLUC_R_SQUARED 0.799, read-out: LUCIFERASE INFECTION ASSAY - IC50) is 0.213 µM.

With `C=C(C#N)CN1CCN(CC(=C)C#N)CC1`, the IC90 was determined as 14.9 µM. In addition, the IC50 (HEPG2TOX_HILL_SLOPE 11.9, HEPG2TOX_R_SQUARED 0.949, PBLUC_HILL_SLOPE 23.6, PBLUC_R_SQUARED 0.193, read-out: LUCIFERASE INFECTION ASSAY - IC50) is 13.6 µM.

Regarding `CCOC(=O)c1c(-c2ccc(Cl)cc2)csc1Nc1nc(S(=O)(=O)c2ccc(Cl)cc2)c(Cl)s1`, the IC90 was over 10 µM. Besides, under setting [1], the half-inhibitory concentration (IC50) came to 5.47 µM.

Take `COc1ccc(C(=O)C2CCN(c3nn4cc(C(C)(C)C)nc4s3)CC2)cc1`: the concentration for an effect of 90% (IC90) came to 4.16 µM. Moreover, the concentration for half-maximal inhibition (IC50) under setting [1] worked out at 3.34 µM.

`Cc1ccc2nc(NC(=O)COCc3ccccc3)c(C(=O)NC3CCCC3)n2c1`: the concentration for an effect of 90% (IC90) was over 8.12 µM. For the same compound, the IC50 (PBLUC_HILL_SLOPE 14.3, PBLUC_R_SQUARED 0.563, read-out: LUCIFERASE INFECTION ASSAY - IC50) worked out at 7.54 µM.

On to `CCCc1noc(CCC(=O)Nc2nc3cc4c(cc3s2)OCCO4)n1`, for which the 90% effect concentration (IC90) is over 10 µM. Moreover, the IC50 under setting [1] is over 10 µM.

As for `COc1cc(-c2nc3ccc(NC(=O)c4cccs4)cn3n2)cc(OC)c1OC`, the IC90 is 6.23 µM. Also, the IC50 (PBLUC_HILL_SLOPE 2.1, PBLUC_R_SQUARED 0.836, read-out: LUCIFERASE INFECTION ASSAY - IC50) amounted to 2.19 µM.

As to `Cc1ccc(C(CN2CCOCC2)NC(=O)c2occc2-c2ccccc2)cc1` (stereo not drawn), the IC90 was over 10 µM. The concentration for half-maximal inhibition (IC50) (HEPG2TOX_HILL_SLOPE 140, HEPG2TOX_R_SQUARED 0.302, PBLUC_HILL_SLOPE 0.784, PBLUC_R_SQUARED 0.306, read-out: LUCIFERASE INFECTION ASSAY - IC50) turned out to be 8.27 µM.

Turning to `c1ccc2c(c1)[nH]c1nc(SCc3cn4ccsc4n3)nnc12`, the IC90 came to 1.85 µM. Besides, the IC50 (PBLUC_HILL_SLOPE 2.76, PBLUC_R_SQUARED 0.824, read-out: LUCIFERASE INFECTION ASSAY - IC50) turned out to be 0.836 µM.

Take `Cc1noc(-c2ccc(Cl)cc2)c1C(=O)ON=C(N)c1ccc(C(C)(C)C)cc1`: the IC90 is over 8.01 µM. Also, the IC50 (FFLUC_HILL_SLOPE 0.0669, FFLUC_R_SQUARED 0.264, read-out: LUCIFERASE INFECTION ASSAY - IC50) was over 8.01 µM.

As for `O=C(Nc1ccnn1-c1nc2ccccc2[nH]1)C(c1ccccc1)c1ccccc1`, the concentration for an effect of 90% (IC90) was 9.69 µM. Besides, under setting [1], the concentration for half-maximal inhibition (IC50) worked out at 5.95 µM.

Regarding `Nn1cc(C(F)(F)F)cc(Cl)c1=[N+]1CCNCC1`, the concentration for an effect of 90% (IC90) was over 7.29 µM. For the same compound, the IC50 under setting [1] was over 7.29 µM.

Regarding `CCOC(=O)c1sc(N(Cc2ccccc2)C(=O)C2CC2C)nc1C` (stereo not drawn), the IC90 was over 10 µM. In addition, the half-inhibitory concentration (IC50) (PBLUC_HILL_SLOPE 0.389, PBLUC_R_SQUARED 0.128, read-out: LUCIFERASE INFECTION ASSAY - IC50) worked out at 1.6 µM.

Turning to `CC(C)CN1C(=O)N(C)C(=O)C12CCN(Cc1cc3ccccc3s1)CC2`, the 90% effect concentration (IC90) is over 8.56 µM. Further, the IC50 (PBLUC_HILL_SLOPE 3.77, PBLUC_R_SQUARED 0.71, read-out: LUCIFERASE INFECTION ASSAY - IC50) was 6.78 µM.

In the case of `Cc1cc(C(=O)C(C)Sc2ncnc3sc(-c4ccccc4)cc23)c(C)n1-c1ccc(OC(F)F)cc1` (stereo not drawn), the IC90 was over 10 µM. Also, the IC50 (FFLUC_HILL_SLOPE 3.01, FFLUC_R_SQUARED 0.199, HEPG2TOX_HILL_SLOPE 3.15, HEPG2TOX_R_SQUARED 0.925, PBLUC_HILL_SLOPE 3.1, PBLUC_R_SQUARED 0.165, read-out: LUCIFERASE INFECTION ASSAY - IC50) came to 7.04 µM.

As to `O=C(CSCCCN1CCN(c2cccc(Cl)c2)CC1)N/N=C/c1ccc(Cl)cc1`, the 90% effect concentration (IC90) is over 7.09 µM. The concentration for half-maximal inhibition (IC50) under setting [1] is over 7.09 µM.

As to `Cc1cc(C)c(NC(=NCc2ccc(Cl)cc2)Nc2c(C)cc(C)cc2C)c(C)c1`, the IC90 was over 10 µM. Further, where the note is “PBLUC_HILL_SLOPE 2.28, PBLUC_R_SQUARED 0.76, read-out: LUCIFERASE INFECTION ASSAY - IC50”, the half-inhibitory concentration (IC50) turned out to be 5.92 µM.

In the case of `Cc1oc(=S)n(CN2CCN(S(=O)(=O)c3ccc4ccccc4c3)CC2)c1C`, the IC90 was over 10 µM. The half-maximal inhibitory concentration (IC50) under setting [1] was over 10 µM.

Take `CCOc1ccc(Oc2ccc(Cl)cc2NCC(=O)N(C)CC(=O)NC(C)C)cc1`: the concentration for an effect of 90% (IC90) was over 10 µM. For the same compound, under setting [1], the IC50 was over 10 µM.

On to `Cc1ccc(OCC(=O)Nc2cc(NC(=O)c3ccco3)ccc2C)c(C)c1`, for which the IC90 worked out at 8.08 µM. Moreover, for the setting “PBLUC_HILL_SLOPE 1.36, PBLUC_R_SQUARED 0.771, read-out: LUCIFERASE INFECTION ASSAY - IC50”, the concentration for half-maximal inhibition (IC50) was determined as 1.61 µM.

`Oc1cccc(-c2cnc3cnc(-c4cccs4)cn23)c1`: the 90% effect concentration (IC90) is over 11.2 µM. The IC50 under setting [1] was over 11.2 µM.

For `Fc1ccccc1-n1cnnc1SC(c1ccccc1)c1ccccc1`, the IC90 came to 1.93 µM. Also, the IC50 (PBLUC_HILL_SLOPE 1.8, PBLUC_R_SQUARED 0.792, read-out: LUCIFERASE INFECTION ASSAY - IC50) amounted to 0.57 µM.

`COc1cccc(-c2cc3c(Nc4ccccc4)nccc3[nH]2)c1`: the IC90 stood at 3.51 µM. Moreover, the 50% inhibitory concentration (IC50) (PBLUC_HILL_SLOPE 41.1, PBLUC_R_SQUARED 0.519, read-out: LUCIFERASE INFECTION ASSAY - IC50) is 3.33 µM.

With `COc1ccc(C(CNC(=O)c2cc(Br)ccc2F)N(C)C)cc1` (stereo not drawn), the 90% effect concentration (IC90) is over 10 µM. Further, under setting [1], the IC50 is over 10 µM.

As to `CCOC(=O)c1c(C)[nH]c(-c2csc(/C(C#N)=C/c3ccc[nH]3)n2)c1C`, the concentration for an effect of 90% (IC90) is over 10 µM. Besides, the IC50 (FFLUC_HILL_SLOPE 1.13, FFLUC_R_SQUARED 0.248, HEPG2TOX_HILL_SLOPE 11.9, HEPG2TOX_R_SQUARED 0.816, PBLUC_HILL_SLOPE 50.7, PBLUC_R_SQUARED 0.357, read-out: LUCIFERASE INFECTION ASSAY - IC50) came out at 9.63 µM.

Consider `Cc1oc(-c2ccc(Cl)cc2)cc1C(=O)Nc1cc(-c2cc(C(C)(C)C)oc2C)nn1-c1cc(C(F)(F)F)cc(C(F)(F)F)c1`, for which the IC90 was over 5.08 µM. Further, the IC50 (PBLUC_HILL_SLOPE 1.26, PBLUC_R_SQUARED 0.137, read-out: LUCIFERASE INFECTION ASSAY - IC50) is over 5.08 µM.

With `CC(=O)Nc1ccc(-c2cnc3ccc(-c4ccc(S(C)(=O)=O)cc4)nn23)cc1`, the IC90 was determined as 7.89 µM. In addition, for the setting “HEPG2TOX_HILL_SLOPE 6.82, HEPG2TOX_R_SQUARED 0.682, PBLUC_HILL_SLOPE 2.96, PBLUC_R_SQUARED 0.544, read-out: LUCIFERASE INFECTION ASSAY - IC50”, the half-maximal inhibitory concentration (IC50) is 3.75 µM.

As for `O=C(Nc1ccccc1)Nc1cncc(C#Cc2ccccc2)c1`, the concentration for an effect of 90% (IC90) came out at 10.2 µM. The concentration for half-maximal inhibition (IC50) (PBLUC_HILL_SLOPE 6.32, PBLUC_R_SQUARED 0.624, read-out: LUCIFERASE INFECTION ASSAY - IC50) was found to be 7.23 µM.

With `CC(C)Cn1c(N)c(C(=O)COC(=O)Cn2c(C(F)(F)F)nc3ccccc32)c(=O)n(C)c1=O`, the IC90 is over 10 µM. Besides, the 50% inhibitory concentration (IC50) under setting [1] is over 10 µM.

In the case of `CCc1nc2ccccc2c(C(=O)OCC(=O)Nc2ccc(C#N)cc2)c1C`, the IC90 is over 10 µM. Also, under “PBLUC_HILL_SLOPE 2.25, PBLUC_R_SQUARED 0.588, read-out: LUCIFERASE INFECTION ASSAY - IC50”, the IC50 turned out to be 4.96 µM.

Consider `O=C(Nc1ccc(Cl)cc1)Nc1csc([N+](=O)[O-])c1`, for which the concentration for an effect of 90% (IC90) is 10 µM. The 50% inhibitory concentration (IC50) (HEPG2TOX_HILL_SLOPE 14.4, HEPG2TOX_R_SQUARED 0.942, PBLUC_HILL_SLOPE 1.2, PBLUC_R_SQUARED 0.682, read-out: LUCIFERASE INFECTION ASSAY - IC50) stood at 1.62 µM.

Turning to `Oc1ccc(Cl)cc1/C=C/c1ccc2cccc(O)c2n1`, the IC90 stood at 6.73 µM. Besides, under “HEPG2TOX_HILL_SLOPE 5.53, HEPG2TOX_R_SQUARED 0.986, PBLUC_HILL_SLOPE 37.8, PBLUC_R_SQUARED 0.36, read-out: LUCIFERASE INFECTION ASSAY - IC50”, the half-inhibitory concentration (IC50) came to 6.35 µM.
